The results in this text go back to ChEMBL document CHEMBL1138933 (J Med Chem, 2006).

Activity calls are given as the source filed them. The rule behind the calls is not given here.

Test [1] deals with Sodium-dependent serotonin transporter (Rattus norvegicus, UniProt P31652).
Description: Displacement of [3H]paroxetine from 5-HT transporter in Sprague-Dawley rat cortical membranes
A further test has as its system Rattus norvegicus. In words: Increase of 5-HT levels in Sprague-Dawley rat frontal cortex at 30 mg/kg, po relative to control by microdialysis assay. It counts as functional, organism-based. Details: dose 30 mg/kg.
Test [2] deals with Sodium-dependent serotonin transporter (Homo sapiens, UniProt P31645). It counts as cell-based, JAR.
Description: Inhibition of [3H]5-HT uptake at human 5-HT transporter expressed in Jar cells
The target of test [3] is Adrenergic receptor alpha-1 (Rattus norvegicus) (UniProt P15823+P23944+P43140). As to the kind of experiment: Displacement of [3H]prazosin from alpha-1 adrenergic receptor in Sprague-Dawley rat cortical membranes at 1 uM. It counts as cell membranes. The note with it: Membrane.
In test [4] the target is T1, Adrenergic receptor alpha-1 (Rattus norvegicus, UniProt P15823+P23944+P43140).
T1 sequence (P15823 whole entry): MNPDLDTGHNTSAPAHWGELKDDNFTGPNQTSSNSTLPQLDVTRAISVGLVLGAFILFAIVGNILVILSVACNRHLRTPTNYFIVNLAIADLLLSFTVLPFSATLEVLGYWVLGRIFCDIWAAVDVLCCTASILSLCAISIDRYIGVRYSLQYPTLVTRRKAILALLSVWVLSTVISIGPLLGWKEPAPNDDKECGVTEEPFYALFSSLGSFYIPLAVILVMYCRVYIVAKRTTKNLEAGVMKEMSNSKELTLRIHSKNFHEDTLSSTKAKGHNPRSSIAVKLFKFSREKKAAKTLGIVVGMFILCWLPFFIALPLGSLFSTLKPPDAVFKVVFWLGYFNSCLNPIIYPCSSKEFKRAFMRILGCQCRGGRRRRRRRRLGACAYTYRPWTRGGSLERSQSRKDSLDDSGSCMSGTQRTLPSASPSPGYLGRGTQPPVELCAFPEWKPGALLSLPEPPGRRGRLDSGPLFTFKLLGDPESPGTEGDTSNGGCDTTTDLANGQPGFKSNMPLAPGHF
T1 sequence (P23944 whole entry): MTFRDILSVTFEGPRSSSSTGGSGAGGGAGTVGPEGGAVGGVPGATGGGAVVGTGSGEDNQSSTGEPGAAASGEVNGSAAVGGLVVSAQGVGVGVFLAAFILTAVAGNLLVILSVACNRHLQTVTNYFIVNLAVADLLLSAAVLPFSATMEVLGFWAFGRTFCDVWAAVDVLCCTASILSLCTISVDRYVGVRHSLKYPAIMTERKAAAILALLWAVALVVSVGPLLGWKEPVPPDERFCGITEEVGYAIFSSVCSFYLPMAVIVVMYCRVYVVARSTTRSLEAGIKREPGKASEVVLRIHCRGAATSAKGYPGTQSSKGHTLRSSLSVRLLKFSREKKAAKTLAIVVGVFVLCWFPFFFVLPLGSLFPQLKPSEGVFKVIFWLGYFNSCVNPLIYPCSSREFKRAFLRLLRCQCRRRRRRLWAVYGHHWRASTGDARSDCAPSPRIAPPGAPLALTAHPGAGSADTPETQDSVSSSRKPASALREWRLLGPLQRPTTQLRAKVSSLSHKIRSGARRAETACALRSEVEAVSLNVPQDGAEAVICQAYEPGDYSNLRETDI
T1 sequence (P43140 whole entry): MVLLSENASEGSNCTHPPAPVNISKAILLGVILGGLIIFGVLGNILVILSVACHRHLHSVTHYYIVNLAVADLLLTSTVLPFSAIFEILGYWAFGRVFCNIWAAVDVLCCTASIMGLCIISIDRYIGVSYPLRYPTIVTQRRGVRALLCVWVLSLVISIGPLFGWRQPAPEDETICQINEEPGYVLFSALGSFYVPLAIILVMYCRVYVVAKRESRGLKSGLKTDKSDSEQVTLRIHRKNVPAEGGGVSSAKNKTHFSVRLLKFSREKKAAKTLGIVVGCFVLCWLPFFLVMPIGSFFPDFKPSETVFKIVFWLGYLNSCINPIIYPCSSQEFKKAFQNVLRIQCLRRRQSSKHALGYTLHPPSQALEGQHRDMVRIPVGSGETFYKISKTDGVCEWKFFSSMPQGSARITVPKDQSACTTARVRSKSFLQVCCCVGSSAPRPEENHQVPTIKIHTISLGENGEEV
As to the kind of experiment: Displacement of [3H]prazosin from alpha-1 adrenergic receptor in Sprague-Dawley rat cortical membranes. The class given is cell membranes, Membrane.

Test [5] addresses T2, 5-hydroxytryptamine receptor 1A (Homo sapiens) (UniProt P08908).
T2 sequence (whole entry): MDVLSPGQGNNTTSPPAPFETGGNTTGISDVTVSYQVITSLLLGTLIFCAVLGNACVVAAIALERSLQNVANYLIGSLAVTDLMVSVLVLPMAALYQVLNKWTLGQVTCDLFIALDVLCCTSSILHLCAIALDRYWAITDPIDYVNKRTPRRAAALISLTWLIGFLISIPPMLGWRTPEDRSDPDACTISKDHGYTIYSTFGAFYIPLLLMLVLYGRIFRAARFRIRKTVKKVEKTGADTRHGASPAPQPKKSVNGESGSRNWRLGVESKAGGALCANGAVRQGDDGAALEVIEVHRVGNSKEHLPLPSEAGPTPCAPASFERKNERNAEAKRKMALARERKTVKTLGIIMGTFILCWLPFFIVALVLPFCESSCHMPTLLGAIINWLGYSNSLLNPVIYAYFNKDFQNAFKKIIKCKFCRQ
As to the kind of experiment: Agonist activity at human 5HT1A receptor expressed in CHO cells by inhibition of […] forskolin-stimulated cAMP production relative to 5-HT. The class given is functional, cell-based.

The target of test [6] is T3, 5-hydroxytryptamine receptor 1A (Homo sapiens, UniProt P08908).
T3 sequence (P08908 whole entry): T2 sequence (whole entry)
In words: biochemical.
Description: Displacement of [3H]-8-OH-DPAT from human 5HT1A receptor expressed in CHO cells

Test [7] deals with T3, 5-hydroxytryptamine receptor 1A.

Sodium-dependent serotonin transporter (Homo sapiens, UniProt P31645), sequence (P31645 whole entry): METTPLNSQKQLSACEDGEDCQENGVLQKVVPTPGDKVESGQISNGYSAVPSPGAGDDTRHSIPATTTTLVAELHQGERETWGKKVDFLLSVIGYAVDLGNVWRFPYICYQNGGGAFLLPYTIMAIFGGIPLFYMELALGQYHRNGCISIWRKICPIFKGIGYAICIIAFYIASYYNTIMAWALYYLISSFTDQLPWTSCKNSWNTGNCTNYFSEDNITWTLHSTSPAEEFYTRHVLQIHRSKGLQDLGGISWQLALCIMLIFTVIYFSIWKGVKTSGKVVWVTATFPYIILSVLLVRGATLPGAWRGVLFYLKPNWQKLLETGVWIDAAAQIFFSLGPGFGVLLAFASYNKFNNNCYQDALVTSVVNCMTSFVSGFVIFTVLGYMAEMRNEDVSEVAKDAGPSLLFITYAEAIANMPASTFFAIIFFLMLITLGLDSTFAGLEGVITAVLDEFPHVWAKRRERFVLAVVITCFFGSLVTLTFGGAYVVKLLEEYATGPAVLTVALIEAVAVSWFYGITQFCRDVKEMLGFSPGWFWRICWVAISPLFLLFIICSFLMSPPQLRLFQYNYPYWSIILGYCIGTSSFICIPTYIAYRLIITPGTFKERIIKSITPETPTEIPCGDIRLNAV
Sodium-dependent serotonin transporter (Rattus norvegicus, UniProt P31652), sequence (P31652 whole entry): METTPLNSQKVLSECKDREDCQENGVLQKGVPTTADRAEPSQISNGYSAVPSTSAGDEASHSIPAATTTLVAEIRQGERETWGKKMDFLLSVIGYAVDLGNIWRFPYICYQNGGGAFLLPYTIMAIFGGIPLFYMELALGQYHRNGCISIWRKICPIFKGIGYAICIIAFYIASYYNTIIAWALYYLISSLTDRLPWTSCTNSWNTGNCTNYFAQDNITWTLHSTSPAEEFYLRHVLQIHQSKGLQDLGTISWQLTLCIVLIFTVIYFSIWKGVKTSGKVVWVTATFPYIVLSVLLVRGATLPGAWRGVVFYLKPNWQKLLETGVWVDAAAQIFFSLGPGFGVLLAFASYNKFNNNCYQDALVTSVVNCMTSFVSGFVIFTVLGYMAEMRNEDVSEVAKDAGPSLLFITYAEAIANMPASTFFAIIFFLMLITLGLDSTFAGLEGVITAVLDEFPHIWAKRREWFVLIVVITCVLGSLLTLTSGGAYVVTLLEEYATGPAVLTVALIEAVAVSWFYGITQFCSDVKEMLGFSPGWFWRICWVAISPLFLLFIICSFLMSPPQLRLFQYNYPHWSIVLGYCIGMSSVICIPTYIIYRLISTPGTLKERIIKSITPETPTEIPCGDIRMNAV

Compound `NC(=O)c1ccc(F)c2c1C[C@@H](N(CCCc1c[nH]c3ccc(F)cc13)C1CCC1)CO2` registered a Ki in test [1] of 1.5 nM. Besides, in the test on Rattus norvegicus, the outcome was Active. In test [2], this compound came in with an IC50 of 18.7 nM. The inhibition in test [3] was determined as 21%.
On to `NC(=O)c1ccc(F)c2c1C[C@H](N(CCCc1c[nH]c3ccc(F)cc13)C1CCC1)CO2`, for which, in test [1], the affinity, expressed as Ki, was 5.3 nM. The compound further gave an IC50 in test [2] of 17.4 nM.
Turning to `NC(=O)c1ccc(F)c2c1C[C@@H](N(CCCc1c[nH]c3ccc(F)cc13)CC1CC1)CO2`, the Ki in test [4] was determined as 2023 nM; in test [1] it was 3.9 nM. Moreover, in test [2], half-maximal inhibition (IC50) was put at 59.7 nM.
`NC(=O)c1ccc(F)c2c1C[C@H](N(CCCc1c[nH]c3ccc(F)cc13)CC1CC1)CO2` registered an Emax in test [5] of 69%. Besides, the affinity in test [1] corresponds to a Ki of 4.2 nM. In test [2], this compound registered an IC50 of 36.3 nM. The inhibition in test [3] was 26%.
Take `CCN(CCCc1c[nH]c2ccc(F)cc12)[C@@H]1COc2c(F)ccc(C(N)=O)c2C1`: the figures for the Ki in test [4], in test [6] and in test [1] were 545 nM, 18.6 nM and 3.6 nM, respectively. Also, the maximal effect (Emax) in test [5] came out at 91%. For the same compound, half-maximal inhibition in test [2] (IC50) required 37.3 nM.
In the case of `COc1cccc2c1C[C@@H](N(CCCc1c[nH]c3ccc(F)cc13)C1CCC1)CO2`, the IC50 in test [7] turned out to be 23 nM; in test [2] it was 732 nM. In test [3], this compound yielded an inhibition of 15%.
Regarding `CCN(CCCc1c[nH]c2ccc(F)cc12)[C@H]1COc2c(F)ccc(C(N)=O)c2C1`, the IC50 in test [7] was 135 nM; in test [2], 42.7 nM. Also, the Ki in test [4] was 640 nM; in test [6], 34.9 nM; in test [1], 3.4 nM.
Regarding `CCCN(CCCc1c[nH]c2ccc(F)cc12)[C@@H]1COc2c(F)ccc(C(N)=O)c2C1`, the Ki in test [6] turned out to be 3.2 nM; in test [1], 4.7 nM. This compound registered an Emax in test [5] of 97%. This compound gave an IC50 in test [2] of 59.9 nM. The compound further came in with an inhibition in test [3] of 46%.
On the same counts, the results for `NC(=O)c1ccc(F)c2c1C[C@@H](NCCCc1c[nH]c3ccc(F)cc13)CO2` are 45.2 nM, 20.4 nM, 85%, 197 nM and 21%.
On to `CN(CCCc1c[nH]c2ccc(F)cc12)[C@H]1COc2c(F)ccc(C(N)=O)c2C1`, for which the results for the Ki in test [6] and in test [1] were 266 nM and 14.8 nM, respectively. Also, the midpoint of inhibition in test [2], the IC50, lay at 116 nM. In test [3], this compound returned an inhibition of 37%.
As to `CCCN(CCCc1c[nH]c2ccc(F)cc12)[C@H]1COc2c(F)ccc(C(N)=O)c2C1`, the Ki in test [4] amounted to 1150 nM; in test [6], 1.5 nM; in test [1] it was 8 nM. The same compound came in with an Emax in test [5] of 78%. In addition, it took 181 nM to reach half-maximal inhibition in test [2] (IC50).
Regarding `CCN(CCCCc1c[nH]c2ccc(F)cc12)C1COc2c(F)ccc(C(N)=O)c2C1` (racemic), the IC50 in test [7] was more than 1000 nM; in test [2], 24.1 nM. Moreover, the Ki in test [4] was determined as 328 nM; in test [6], 330 nM; in test [1], 0.4 nM.
Take `CCN(CCCc1c[nH]c2ccc(F)cc12)C1COc2cccc(OC)c2C1` (racemic): the results for the Ki in test [4] and in test [6] were 207 nM and 2.3 nM, respectively. The Emax in test [5] was 96%. Also, the midpoint of inhibition in test [2], the IC50, lay at 64 nM.
With `CCCN(CCCCc1c[nH]c2ccc(F)cc12)C1COc2c(F)ccc(C(N)=O)c2C1` (racemic), the Ki in test [4] was 494 nM; in test [6], 4.4 nM; in test [1], 12.2 nM. For the same compound, the IC50 in test [2] worked out at 217 nM.
`CCN(CCc1c[nH]c2ccc(F)cc12)C1COc2c(F)ccc(C(N)=O)c2C1` (racemic): the Ki in test [4] stood at 416 nM; in test [6], 33.2 nM; in test [1], 60.2 nM. In addition, in test [2], the IC50 came to 883 nM.
For `COc1cccc2c1CC(N(C)CCCc1c[nH]c3ccc(F)cc13)CO2` (racemic), in test [4], the Ki is 610 nM. Besides, the Emax in test [5] is 91%. In test [2], this compound registered an IC50 of 15 nM.
In the case of `COc1cccc2c1CC(N(CCCc1c[nH]c3ccc(F)cc13)CC1CC1)CO2` (racemic), in test [5], the Emax amounted to 91%. In addition, the midpoint of inhibition in test [2], the IC50, lay at 42.6 nM. Further, the inhibition in test [3] worked out at 44%.
In the case of `CCCN(CCc1c[nH]c2ccc(F)cc12)C1COc2c(F)ccc(C(N)=O)c2C1` (racemic), the Ki in test [4] stood at 484 nM; in test [6], 17.6 nM; in test [1], 88 nM. The IC50 in test [2] is more than 1000 nM.
Take `CCCN(CCCc1c[nH]c2ccc(F)cc12)C1COc2c(F)ccc(C(N)=O)c2C1` (racemic): the results for the Ki in test [6] and in test [1] were 3.5 nM and 7.1 nM, respectively. This compound yielded an Emax in test [5] of 84%. The same compound yielded an IC50 in test [2] of 128 nM.
For `NC(=O)c1ccc(F)c2c1CC(N(CCCCc1c[nH]c3ccc(F)cc13)C1CCC1)CO2` (racemic), the IC50 stood at 24 nM in test [7] and 300 nM in test [2]. Also, the inhibition constant (Ki) turned out to be 645 nM in test [4] and 10.4 nM in test [1].
Turning to `CCCN(CCCc1c[nH]c2ccc(F)cc12)C1COc2cccc(OC)c2C1` (racemic), the Ki in test [4] is 820 nM. In test [5], this compound returned an Emax of 80%. Further, inhibition in test [2] was half-maximal at 386 nM (IC50).
Consider `NC(=O)c1ccc(F)c2c1CC(N(CCc1c[nH]c3ccc(F)cc13)CC1CC1)CO2` (racemic), for which the Ki in test [4] is 636 nM; in test [6], 7.3 nM; in test [1] it was 97.8 nM. This compound yielded an IC50 in test [2] of more than 1000 nM.
The compound `NC(=O)c1ccc(F)c2c1CC(N(CCCc1c[nH]c3ccc(F)cc13)C1CCC1)CO2` (racemic) came in with a Ki in test [1] of 3 nM. In addition, the concentration for half-maximal inhibition (IC50) in test [2] came out at 25.2 nM. In addition, the inhibition in test [3] came out at 16%.
Turning to `NC(=O)c1ccc(F)c2c1CC(N(CCCCc1c[nH]c3ccc(F)cc13)CC1CC1)CO2` (racemic), the Ki in test [4] is 506 nM; in test [6], 2.1 nM; in test [1], 3.3 nM. Also, 82.4 nM corresponded to half-maximal inhibition in test [2] (IC50).
In the case of `COc1cccc2c1CC(N(CCCc1c[nH]c3ccc(F)cc13)C1CCC1)CO2` (racemic), the Emax in test [5] was 37%. In test [2], half-maximal inhibition (IC50) was put at 400 nM. Also, in test [3], the inhibition came to 15%.
`NC(=O)c1ccc(F)c2c1CC(N(CCCc1c[nH]c3ccc(F)cc13)CC1CC1)CO2` (racemic) gave a Ki in test [1] of 3.5 nM. In test [2], this compound showed an IC50 of 53.5 nM. Also, the inhibition in test [3] came to 32%.
